No end group written: not given here. *: point of attachment. Biotin = O=C1N[C@H]2[C@H](CS[C@H]2CCCCC(=O)*)N1

The text below walks through data of patent US7279548B2, “Identification and isolation of novel polypeptides having WW domains and methods of using same” (Cytogen Corporation, priority 1996, dated 2007).

Holding throughout (assay type): binding, human
For assay [1], the system named is twelve individual novel WW domains of WWP1, WWP2, WWP3 and WWP4. The assay is described as follows: ELISA based cross affinity mapping, whole panel of novel WW domains. The settings on record: biotinylated peptide-streptavidin/alkaline phosphatase complex, GST fusion proteins. The procedure: (§1) The 16 day mouse embryo cDNA expression library was diluted 1:1000 in SM solution (100 mM NaCl, 8 mM MgSOv4, 50 mM Tris HCl pH 7.5, 0.01% gelatin). To a sterile test tube, 2 μl of diluted mouse embryo library, 100 μl of 10 mM CaCl2, 100 μl of 10 mM MgCl2 and 100 μl of BL21(DE3)pLysE bacterial cells (grown overnight) were added and incubated for 30 minutes at 37° C. The contents of the tube were mixed with 3 ml of 0.6% top agarose, containing […] chloramphenicol, and poured onto a 2xYT plate (90 mm diameter). For a large primary screen, 10–20 plates were prepared with 3×10^4 pfu per plate. After 6 hours incubation at 37° C., a nitrocellulose filter soaked in 10 mM isopropyl-β-D-thiogalactopyranoside (IPTG) was overlaid on each plate and incubated 3–6 hours at 37° C. Before the filters were removed from the plates, they were marked asymmetrically with India ink in a 18 gauge syringe needle. The plates were stored at 4° C. until ready for the secondary screen. The filters were washed with PBS (137 mM NaCl, 2.7 mM KCl, 4.3 mM Na2HPO4, 1.4 mM KH2PO4)-0.05% Triton X-100 three times at room temperature, 15 minutes each wash, and then placed in a plastic bag containing non-specific blocking solution (PBS-2% BSA) for one hour. In the meantime, 1 ml of 1 mM biotinylated peptide in PBS-0.1% Tween 20 was added to 20 ml of 1 mg/ml streptavidin-alkaline phosphatase (SA-AP) in PBS-0.1% Tween 20 and incubated at 4° C. for 30 minutes. […] Excess biotin-binding sites would then be blocked by addition of 500 pmol biotin. […] Ten μl of 0.1 mM biotin would then be added, and the solution incubated for an additional 15 min.
(§2) To determine the ligand preferences of the novel WW omain-containing clones described in Sections 6.1 and 6.1.1, as well as addressing the issue of whether peptides containing PPPPY (SEQ ID NO:3)-like motifs derived from a variety of proteins could also serve as recognition units and bind to these clones, a cross affinity mapping experiment was performed (FIGS. 15A–D). The peptides shown in FIGS. 15A–D were synthesized, biotinylated, complexed with streptavidin-alkaline phosphatase, and tested in an ELISA based assay for their ability to bind to the twelve individual novel WW domains of WWP1, WWP2, WWP3 and WWP4 which were expressed as GST fusion proteins. The ELISA based cross-affinity experiments were performed essentially as described by Sparks et al. (1996, Proc. Natl. Acad. Sci. 93:1540–1544) with the following modifications. Briefly, microtiter wells were coated with 1–5 μg of fusion protein in 100 mM NaHCO3, blocked with SuperBlock TBS (Pierce) and washed four times with PBS, 0.05% Tween 20. Specific peptide-streptavidin/alkaline phosphatase complexes were added as above and unbound complexes washed five times with PBS, 0.05% Tween 20. Following addition of PNP substrate (p-nitrophenyl phosphate, Kirkegard & Perry Labs), peptide binding was quantitated after 30 min. at O.D. 405 nm. Relative binding measurements from three independent determinations were assigned to a scale as follows: O.D. units 0–0.5=(−), 0.5–1.0=(+), 1.0–2.0=(++), 2.0–3.0=(+++), >3.0=(++++). Peptide binding to human Fyn and Lyn SH3 and SH2 domains was assessed by a filter binding assay (see Section 6.1 and Sparks et al., 1996, Proc. Natl. Acad. Sci 93:1540–1544). Peptide sequences used in cross-affinity experiments correspond to segments of the following genes: RasGap (Database accession # P20936), AP-2 (P05549), p53BP-2 (U09582), IL-6Rα (P22272), voltage-gated chloride channel CLCN5 (X91906), IL-2Rγ (D111086), RSV (D10652), HTLV-1 (D13784), β-dystroglycan (L19711), Formin (X53599), amiloride-sensitive epithelial Na^+ channel ENaCα (P37089), ENaCβ (X87159) and ENaCγ (X87160), muscarinic acetylcholine receptor M4 AChR (P08173), and c-Abl (P00522). Src and Crk SH3 binding peptide sequences were derived from a phage display random peptide library screen (Section 6.1 and Sparks et al., 1996, Proc. Natl. Acad. Sci. 93:1540–1544).
(In general: An ELISA detects its analyte on a solid surface through an enzyme-linked reagent.)

For assay [2], the system named is WW domains of WWP4 expressed as GST fusion proteins. The assay is described as follows: ELISA based cross affinity mapping, WW domains of WWP4. The settings on record: biotinylated peptide-streptavidin/alkaline phosphatase complex; GST fusion proteins; ELISA. The protocol: as §1, §2
The subject of assay [3] is WW domains of WWP2 expressed as GST fusion proteins. Description: ELISA based cross affinity mapping, WW domains of WWP2. As to conditions: biotinylated peptide-streptavidin/alkaline phosphatase complex; GST fusion proteins; ELISA. The protocol: as §1, §2

Biotin-SGSGPGTPPPPYTVGPGY [WBP-1]: in assay [1], the “binding to the novel WW domains (WWP1, WWP2, WWP3, WWP4 panel)” value (from here on “binding to the novel WW domains”) is reported as “bound to several individual WW domains to varying degrees”. For the same substance, the “binding to WW domains of WWP4” value in assay [2] is reported as “specifically bind”. The “binding to WW domains of WWP2” value in assay [3] is given as “specifically bind”.

With Biotin-SGSGPGTPYPPPPEFY [WBP-2B], the “binding to the novel WW domains” value in assay [1] was “no binding activity”. Also, the “binding to WW domains of WWP4” value in assay [2] is on record as “none of the WW domains of these proteins specifically bind”. Also, the “binding to WW domains of WWP2” value in assay [3] is “none of the WW domains of these proteins specifically bind”.

For the substance Biotin-SGSGYVQPPPPPYPGPM [WBP-2A], the “binding to the novel WW domains” value in assay [1] is recorded as “bound to several individual WW domains to varying degrees”. The “binding to WW domains of WWP4” value in assay [2] was “specifically bind”. For the same substance, in assay [3], the “binding to WW domains of WWP2” value is “specifically bind”.
